Usually IC50 stands for the concentration that gives 50% inhibition.

The target of this assay is T1, Human M4 (Homo sapiens, UniProt P08173).
T1 construct: Human or rat M4 cDNA, along with the chimeric G protein Gq,5, were transfected into Chinese hamster ovary (CHO-K1) cells; expressed in transfected cells; host or cells: CHO-K1 (M4/Gqi5/CHO)
T1 sequence (P08173 1-479): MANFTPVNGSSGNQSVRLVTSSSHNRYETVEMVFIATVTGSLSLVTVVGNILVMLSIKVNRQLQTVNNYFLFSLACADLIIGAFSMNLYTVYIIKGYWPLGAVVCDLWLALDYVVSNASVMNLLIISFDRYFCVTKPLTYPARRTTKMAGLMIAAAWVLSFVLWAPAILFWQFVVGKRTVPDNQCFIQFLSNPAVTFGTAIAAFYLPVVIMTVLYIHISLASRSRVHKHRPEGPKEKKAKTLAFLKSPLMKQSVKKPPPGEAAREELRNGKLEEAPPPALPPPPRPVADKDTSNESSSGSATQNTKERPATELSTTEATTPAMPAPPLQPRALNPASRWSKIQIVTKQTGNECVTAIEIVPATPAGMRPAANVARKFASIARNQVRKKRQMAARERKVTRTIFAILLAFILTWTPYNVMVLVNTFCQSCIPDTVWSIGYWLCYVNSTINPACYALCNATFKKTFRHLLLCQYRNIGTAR
Put plainly: mAChR M4 cell-based functional assay (calcium flux, decrease of EC80 acetylcholine response). The note with it: for Human M4 Emin: % ACh maximum at 30 μM; for IC50: CHO-K1 cells with human M4 and Gqi5, EC80 acetylcholine. In short, it runs like this:
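CHO-K1 cells stably co-expressing M4 with chimeric Gqi5, loaded with Fluo-4 AM for 50 min at 37 °C; compounds added as 10-point 1:3 curves, then acetylcholine at EC20 (143 s) and EC80 (268 s). Calcium read by FDSS fluorescence ratio; IC50 from four-parameter fit of decrease in EC80 acetylcholine response.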
A general note: Calcium flux is commonly read through the fluorescence of an indicator in the cells.

Consider `CC(C)(O)CCN1C[C@H]2C[C@H](Nc3ccc(-c4cc(F)cc(F)c4F)nn3)C[C@H]2C1` [Compound 54, 2-methyl-4-((3aR,5s,6aS)-5-((6-(2,3,5-trifluorophenyl)pyridazin-3-yl)amino)hexahydrocyclopenta[c]pyrrol-2(1H)-yl)butan-2-ol], for which the “Human M4 Emin” value was determined as 5% and the IC50 was found to be 160 nM.

With `[2H]C([2H])(C1CC(C)(O)C1)N1C[C@H]2C[C@H](Nc3ccc(-c4cc(F)cc(F)c4F)nn3)C[C@H]2C1` (stereo partly drawn) [Compound 55, 1-methyl-3-(((3aR,5s,6aS)-5-((6-(2,3,5-trifluorophenyl)pyridazin-3-yl)amino)hexahydrocyclopenta[c]pyrrol-2(1H)-yl)methyl-d2)cyclobutan-1-ol], the “Human M4 Emin” value is reported as 5% and the half-maximal inhibitory concentration (IC50) came to 15 nM.

Regarding `[2H]C([2H])(COC(C)(C)C)N1C[C@H]2C[C@H](Nc3ccc(-c4cc(F)cc(F)c4F)nn3)C[C@H]2C1` [Compound 56, (3aR,5s,6aS)-2-(2-(tert-butoxy)ethyl-1,1-d2)-N-(6-(2,3,5-trifluorophenyl)pyridazin-3-yl)octahydrocyclopenta[c]pyrrol-5-amine], the “Human M4 Emin” value came out at 3% and the IC50 was 3 nM.

Regarding `Fc1cc(F)c(F)c(-c2ccc(N[C@H]3C[C@@H]4CN(CC5CC(F)(F)C5)C[C@@H]4C3)nn2)c1` [Compound 57, (3aR,5s,6aS)-2-((3,3-difluorocyclobutyl)methyl)-N-(6-(2,3,5-trifluorophenyl)pyridazin-3-yl)octahydrocyclopenta[c]pyrrol-5-amine], the “Human M4 Emin” value is recorded as 3% and the IC50 was found to be 25 nM.

For the molecule `Fc1ccc(OCCN2C[C@H]3C[C@H](Nc4ccc(-c5cc(F)cc(F)c5F)nn4)C[C@H]3C2)cc1` [Compound 58, (3aR,5s,6aS)-2-(2-(4-fluorophenoxy)ethyl)-N-(6-(2,3,5-trifluorophenyl)pyridazin-3-yl)octahydrocyclopenta[c]pyrrol-5-amine], the “Human M4 Emin” value turned out to be 4% and the IC50 turned out to be 170 nM.

Take `COc1ccc(OCCN2C[C@H]3C[C@H](Nc4ccc(-c5cc(F)cc(F)c5F)nn4)C[C@H]3C2)cc1` [Compound 59, (3aR,5s,6aS)-2-(2-(4-methoxyphenoxy)ethyl)-N-(6-(2,3,5-trifluorophenyl)pyridazin-3-yl)octahydrocyclopenta[c]pyrrol-5-amine]: the “Human M4 Emin” value amounted to 2% and the IC50 was found to be 60 nM.

As for `Fc1cc(F)c(F)c(-c2ccc(N[C@H]3C[C@@H]4CN(CCC(F)(F)F)C[C@@H]4C3)nn2)c1` [Compound 60, (3aR,5s,6aS)-N-(6-(2,3,5-trifluorophenyl)pyridazin-3-yl)-2-(3,3,3-trifluoropropyl)octahydrocyclopenta[c]pyrrol-5-amine], the “Human M4 Emin” value is given as 13% and the IC50 was 810 nM.

With `OC1(CN2C[C@H]3C[C@H](Nc4ccc(-c5cc(F)cc(F)c5F)nn4)C[C@H]3C2)CCCC1` [Compound 61, 1-(((3aR,5s,6aS)-5-((6-(2,3,5-trifluorophenyl)pyridazin-3-yl)amino)hexahydrocyclopenta[c]pyrrol-2(1H)-yl)methyl)cyclopentan-1-ol], the “Human M4 Emin” value came out at 2% and the half-inhibitory concentration (IC50) worked out at 2.3 nM.

As for `OC1(CN2C[C@H]3C[C@H](Nc4ccc(-c5cc(F)cc(F)c5F)nn4)C[C@H]3C2)CCCCCC1` [Compound 62], the “Human M4 Emin” value amounted to 3% and the IC50 turned out to be 3300 nM.

`OC1(CN2C[C@H]3C[C@H](Nc4ccc(-c5cc(F)cc(F)c5F)nn4)C[C@H]3C2)C2CC3CC(C2)CC1C3` (stereo partly drawn) [Compound 63, 2-(((3aR,5s,6aS)-5-((6-(2,3,5-trifluorophenyl)pyridazin-3-yl)amino)hexahydrocyclopenta[c]pyrrol-2(1H)-yl)methyl)adamantan-2-ol]: the “Human M4 Emin” value is recorded as 3% and the IC50 worked out at 78 nM.
